The assay addresses T1, 3-phosphoinositide-dependent protein kinase 1 (Homo sapiens, UniProt O15530).
T1 sequence (O15530 whole entry): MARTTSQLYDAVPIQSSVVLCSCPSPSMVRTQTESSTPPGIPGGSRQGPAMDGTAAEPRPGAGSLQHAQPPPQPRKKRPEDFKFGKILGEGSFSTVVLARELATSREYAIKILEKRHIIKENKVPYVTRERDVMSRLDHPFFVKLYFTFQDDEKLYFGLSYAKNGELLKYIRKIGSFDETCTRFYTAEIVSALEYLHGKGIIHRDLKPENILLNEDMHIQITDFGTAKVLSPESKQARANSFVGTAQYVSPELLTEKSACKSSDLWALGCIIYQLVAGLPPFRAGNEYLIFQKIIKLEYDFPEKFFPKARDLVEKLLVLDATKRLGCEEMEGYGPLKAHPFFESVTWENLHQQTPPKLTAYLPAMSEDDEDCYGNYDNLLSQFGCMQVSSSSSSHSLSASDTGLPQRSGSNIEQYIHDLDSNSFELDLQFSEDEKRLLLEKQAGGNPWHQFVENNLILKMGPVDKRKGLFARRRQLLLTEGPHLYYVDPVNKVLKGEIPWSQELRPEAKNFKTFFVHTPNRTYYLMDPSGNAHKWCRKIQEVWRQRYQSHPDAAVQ
The assay can be described thus: PDK1-mediated AKT2 Activation Assay (cAKT2 33P-SPA). The note with it: pH 7.2; 22 °C.

For `O=C1Nc2ccc(-c3nnn[nH]3)cc2C1=Cc1ccc[nH]1` [(3Z)-3-(1H-pyrrol-2-ylmethylidene)-5-(1H-1,2,3,4-tetrazol-5-yl)-2,3-dihydro-1H-indol-2-one], the IC50 (usually the concentration needed to halve the response being measured) was found to be 200 nM. This counts as sub-micromolar.

(Values after BindingDB's records for doi:10.1016/j.bmcl.2007.04.071 (Berlex Biosciences, 2007).)
